The values that follow come from patent publication US20230020401A1, “METABOLIC REPROGRAMMING OF IMMUNE CELLS TO ENHANCE THE EFFICACY OF PROPHYLACTIC AND T[…]” (priority 2019, published 2023).

For experiment [1], the system named is IgG1 memory cells. Put plainly: Effect of Mdivi-1 on IgG1 memory cells formation 6 months post immunization. The class given is in vivo.
The next experiment relates to pseudo SARS-CoV2 virus. Type of experiment: cell-based, human.
In experiment [2] the test system is mouse pancreatic cancer cells. Put plainly: Neo-antigen vaccine with SBP-AS08 in mouse pancreatic cancer model. Type of experiment: in vivo, mice. As to conditions: Kaplan Meier. As to the method:
The effect of Mdivi-1 (SBP-AS08) in boosting immunity can be extrapolated to other diseases related to specific immune response (e.g., cancer, etc.). FIG. 36A is a schematic of an experimental layout to test the effect of Mdivi-1 (SBP-AS08) in mouse cancer model. In this experiment, mouse pancreatic cancer cell line lysate was used as the vaccine. 200,000 mouse pancreatic cancer cells were injected in 10 (C57/B6) mice per group via tail vein. Effectiveness of the vaccine was tested by analyzing the metastasis of the cancer cells from the pancreas to lungs (FIG. 36B). Lungs tissues were collected from group of vaccine and vaccine with SBP-AS08 on Day 22 post injections. Two more groups with no treatment and only SBP-AS08 treatment were also included in the analysis.
FIG. 37A and FIG. 37B show Kaplan Meier survival curve of mice that are unvaccinated, treated with SBP-AS08 only, treated with vaccine, or treated with vaccine and SBP-AS08.

The subject of a further experiment is SRBC specific antibody. Nature of the experiment: SRBC immunization in older age mice with Mdivi-1. The class given is in vivo. Particulars: 14-24 months old mice; 2.5 mg/kg day 3; day 11. The method, then:
2 groups of eight mice each (14-24 months old age) were immunized intraperitoneally with sheep red blood cells (SRBC). In day 3, one group (SRBC group) was administered with saline, and another group (SRBC+Mdivi-1 (SBP-AS08)) was administered with 2.5 mg/kg dose of Mdivi-1 (SBP AS-08). FIG. 30B and FIG. 30C show scatter plots of SRBC specific anti-IgM antibody or SRBC specific anti-IgG1 antibody of two groups in day 11 after administration of SRBC, respectively. Each dot represents each individual mice in each group.

The subject of another experiment is NP specific B cells. Put plainly: NP-CGG immunization with Mdivi-1 (day 2, 5, 8) and rechallenge on day 61. Type of experiment: in vivo, mice. As to the method:
FIG. 12C is a schematic of an experimental design of multiple injections of Mdivi-1 (SBP-A508) for studying NP-CGG immunization along with or without SBP-A508 treatment. As shown, mice were injected with NP-CGG on day 0, and further injected with SBP-A508 on day 2, Day 5, and Day 8 at a dose of 2.5 mg/kg each. Then, a boost immunization (rechallenge) was given on day 61. Mice were bleed on day 82 for further analysis. FIG. 12D is a bar graph in log scale showing the NP-2 specific antibody production measured by ELISA in control and SBP-AS08 treated group upon rechallenge with NP-CGG in PBS on Day 61. Mice were bleed on Days 0, 60, 68, 75 and 82.
FIG. 13A depicts an experimental design for studying NP-CGG immunization along with or without Mdivi-1 treatment. Briefly, Mdivi-1 treatments were performed at least three times after immunization (day 2, day 5, and day 8), and the blood samples from the subject were analyzed at 2 months after the immunization. […] Mice were bleed on days 0, 60, 68, 75 and 82.
Mice were immunized with NP-CGG and treated with Mdivi-1 at least three times after immunization (day 2, day 5, and day 8). Then, a boost immunization (rechallenge) was given on day 61. Mice were bleed on day 82 for further analysis. […] Mice were bleed on days 0, 60, 68, 75 and 82 after immunization with NP-CGG. […] As shown in FIGS. 17A-B, Mdivi-1 treated mice replenished their memory B cell pool.

Experiment [3] has as its system immune cells (GC B cells, memory B cells, non-B cells). Put plainly: Mitochondrial mass of immune cells in vivo after SRBC immunization with SBP-AS08. Further details: species or system mice. The method, then: Seven mice each in two group were immunized with SRBC on Day 0 and Day 4. One group on Day 3 and Day 7 were given SBP-A508 at 2.5 mg/kg. GC B cells were MACS and stained with Tomm20 (red) to stain mitochondria and DAPI to stain nucleus on Day 15. Cells were imaged using confocal microscope.
In another experiment, mice each in two group were immunized with SRBC on Day 0 and Day 5. One group of mice was also injected with SBP-A508 on Day 7 and Day 10. […] Day 15 post immunization, mice were sacrificed and spleens were harvested. Cells were incubated in Mitotracker red dye 200 nM per ml of RPMI for 15 mins at culture conditions. Cells were further stained with surface antibodies B220, CD38, Fas to determine B cells, Germinal Center and non-B cells populations.

The next experiment relates to IgM and IgG1 cells. Nature of the experiment: Confocal imaging of mitochondria organization upon BCR stimulation. The class given is cell-based. Particulars: BCR+Mdivi-1.
Experiment [4] relates to IgG1 memory cells. Put plainly: SRBC immunization Day 0 with SBP-AS08 on day 2, IgG1 memory cells. The class given is in vivo, mice. Particulars: SRBC with SBP-AS08 vs SRBC alone. As to the method: Seven mice were immunized with SRBC Day 0, and further injected with SBP-AS08 on day 2. Then, serum from immunized mice was incubated with SRBC and stained by anti-mouse IgG1 antibody to detect the SRBC specific IgG1 antibody. FIG. 12A is the graph showing absolute number of IgG1 memory cells in SRBC alone and SRBC with SBP-A508, indicating the increase of IgG1 memory cells in the mice injected with SBP-AS08.

Experiment [5] relates to T follicular helper (TFh) cells. Nature of the experiment: T follicular helper (TFh) cells in Mdivi-1 treated mice. The class given is in vivo. The source says: […] Dot plots shown in FIG. 18B show the frequencies of TFh cells. […] Similarly, FIGS. 23A-B show flow plots (FIG. 23A) and graph (FIG. 23B) displaying enrichment of T follicular helper cells in mice treated with Mdivi-1.

A further experiment concerns IgG1 GC B cells. Nature of the experiment: SRBC immunization of mice with Mdivi-1 treatment (GC and memory B cells). The class given is in vivo.
The test system of the next experiment is IgG1 memory B cells. Nature of the experiment: SRBC immunization, Mdivi-1 once on Day 3, analysis on day 11 (IgG1 memory and memory precursor cells, antibodies). The class given is in vivo, mice. The method, then: Mice were immunized with Sheep red blood cells (SRBC) to mount an immune response. One group was treated with Mdivi-1 once at the dose of 2.5 mg/kg on Day 3. Blood samples of all groups were analyzed on day 11 after initial immunization.
FIGS. 21A-B show increased IgG1 memory cell population upon Mdivi-1 treatment. […] show flow plots showing IgG1 population and gating memory B cells in immunized control and Mdivi-1 treated mice.
FIG. 22A show two flow plots showing population of SRBC-specific IgG1 memory precursors in control and Mdivi-1 treated group (right upper boxes). FIG. 22B is the graph showing frequencies of IgG1 memory precursors.
Sera was incubated with SRBC to bind all the SRBC specific antibody, followed by staining SRBCs with anti-IgG1 to determine the SRBC specific IgG1 in control and Mdivi-1 treated group of mice.

For a further experiment, the system named is H1N1. Nature of the experiment: Flu vaccine with Mdivi-1, lethal H1N1 challenge. Type of experiment: in vivo, mice. The method, then:
4 groups of ten mice each (6-8 weeks) were vaccinated intra-nasally with flu vaccine (vaccine group and vaccine+Mdivi-1 (SBP AS-08) group) or saline (No Vaccine group). In day 3, vaccine+Mdivi-1 (SBP AS-08) group and Mdivi-1 only group were administered with 2.5 mg/kg dose of Mdivi-1 (SBP AS-08), while all other groups were administered with saline. In day 60, all groups were administered with a lethal dose of H1N1. FIG. 28A is an individual dot graph showing the weight of mice in each group post lethal H1N1 viral infection. For each time point, dot or a group of dots from left to right represent the sample fo no vaccine, SBP-AS08 only, vaccine only, and vaccine and SBP-AS08, respectively. […] Mice were sacrificed if the weight reached 70% of their original weight or appeared very sick. N=10 per group, *p=0.04, ** p=0.001, ***p=0.0001, ****p<0.0001.
Mice from each group were also sacrificed on Day 7 post lethal influenza infection.

Another experiment concerns SARS-CoV2 specific cells. Nature of the experiment: SARS-CoV2 S1 subunit vaccine with Mdivi-1 (SBP-AS08) in mice. The class given is in vivo.
Experiment [6] has as its system plasma cells (CD138+ cells). Nature of the experiment: Plasma cell (PC) differentiation in vitro. The class given is cell-based. As to the method:
Cells were treated either with Etomoxir to prevent fatty acid oxidation or with 2-deoxy-D-glucose (2DG) to […] to see the effect of fatty acid oxidation in plasma cell differentiation.

[7] abbreviates: 2.5 mg/kg Day 3 and Day 7, mitotracker red MFI, Day 15.
Where [8] appears, read: injected Day 7 and Day 10, spleen Day 15, Mitotracker red.
Setting [9] is: Mdivi-1 two days post immunization.
The mark [10] stands for this setting: single injection 2.5mg/kg Day 3, Day 15.

Consider `COc1cc(-n2c(=S)[nH]c3ccccc3c2=O)c(Cl)cc1Cl` [Mdivi-1, 3-(2,4-dichloro-5-methoxyphenyl)-2,3-dihydro-2-thioxo-4(1H)-quinazolinone], for which the “immune memory formation (IgG1 expressing memory B cells)” value with IgG1 memory cells [1] is on record as “facilitates immune memory formation”. Also, in the experiment on pseudo SARS-CoV2 virus, the “% of neutralizing antibody titers (SARs-Cov2 pseudovirus neutralization)” value is “higher”. Also, the “survival of tumor bearing mice” value in experiment [2] is given as “increases the survival”. In the experiment with SRBC specific antibody, the “SRBC specific anti-IgG1 antibody” value is “substantially increased”. Besides, the “frequency of NP specific B cells” value with NP specific B cells (2 months after immunization, vs control) was “substantial increase”. In the experiment on NP specific B cells (after rechallenge), the “memory B cell pool” value is recorded as “replenished”. Further, in the experiment with NP specific B cells (after rechallenge, vs control), the “number of NP specific IgG1 memory cells” value was “significantly increased” and the “number of NP specific immune cells” value was “significantly increased”. The “antigen specific antibody generation after antigen boost” value in the experiment with NP specific B cells (rechallenge with NP-CGG in PBS on Day 61) was “substantially increased”. Further, the “mice showing secondary response upon recall” value in the experiment with NP specific B cells (upon recall, control group 33%) came to 100%. In addition, the “NP specific antibody production measured by ELISA” value in the experiment on NP specific B cells (vs control) is “increased”. Moreover, in [3] (setting [7]), the “mitochondrial mass of germinal center B cells” value is on record as “enhances” and the “mitochondrial mass of memory B cells” value is “enhances”. In addition, in experiment [3] (setting [8]), the “mitochondrial mass of B cells” value is listed as “significantly increased” and the “mitochondrial mass of non-B cells” value is reported as “significantly increased”. The “mitochondrial fission in BCR treated cells” value in the experiment with IgM and IgG1 cells is given as “prevents the mitochondrial fission”. Further, in the experiment with IgG1 memory cells [4], the “absolute number of IgG1 memory cells” value is “increase”. Besides, the “frequency of TFh cells” value in experiment [5] (FIG. 18B, vs control) was “substantially increased”. Further, the “T follicular helper cells” value in [5] (FIGS. 23A-B) was “enrichment”. Further, the “PD-1 molecule expression on T follicular helper cells (median fluorescent intensity)” value in [5] (vs nontreated control group) is “higher”. The “frequencies of GC B cells” value in the experiment with IgG1 GC B cells (Mdivi-1 twice, each 3 days after SRBC, vs control) is “increased”. For the same molecule, in the experiment with IgG1 GC B cells (setting [9]), the “IgG1 memory B cells” value was “significant increase”, the “longevity of IgG1 memory B cells” value is listed as “significant increase” and the “mitochondrial mass of IgG1 memory B cells” value is reported as “significant increase”. Also, the “mitochondrial mass of IgG1 GC B cells” value in the experiment on IgG1 GC B cells (Mitotracker green MFI) was “enhances”. For the same molecule, in the experiment with IgG1 GC B cells (SRBC immunization), the “IgG1 B cell loss through mitochondrial fragmentation and apoptosis” value is recorded as “prevents IgG1 B cell loss”. Further, the “survival of IgG1 GC B cells” value with IgG1 GC B cells (active caspase-3, flow cytometry) is given as “enhances”. Besides, the “IgG1+CD38+ cell population (IgG1 memory B cells)” value in the experiment with IgG1 memory B cells (2.5 mg/kg once on Day 3, day 11) is “substantially increased”. Also, in the experiment with IgG1 memory B cells (FIG. 19), the “frequencies of SRBC-specific IgG1 memory precursors” value is on record as “significantly increased”. For the same molecule, the “IgG1+CD38+ cell population (memory precursors cells)” value with IgG1 memory B cells (FIGS. 22A-B) is reported as “substantially increased”. The “efficacy of immunization (total IgG and SRBC specific IgG antibodies)” value with IgG1 memory B cells (FIGS. 24A-B) is given as “increases the efficacy of immunization”. Also, the “protection against fatal influenza infection (event free survival)” value with H1N1 (2.5 mg/kg day 3 after flu vaccine, lethal H1N1 day 60) was “boosts the protection”. In addition, the “disease progression post H1N1 (lung histology)” value in the experiment on H1N1 (Day 7 post lethal influenza infection, H&E) is listed as “reduces the disease progression”. Moreover, the “efficacy of the vaccine after rechallenge (S1 specific antibody titers in serum)” value in the experiment on SARS-CoV2 specific cells (2.5 mg/kg Day 2 and Day 5, boost day 30, Day 37 and Day 44) was “enhances the efficacy”. Further, in the experiment on SARS-CoV2 specific cells (injections Day 2 and Day 5, Day 15, vs vaccine alone), the “number of marker-specific B cells” value is listed as “further increased”. Besides, in the experiment with SARS-CoV2 specific cells (setting [10]), the “number of SARS-CoV2-specific cells” value was “increased”, the “number of SARS-CoV2-specific memory B cells” value is reported as “increased”, the “number of anti-SARS-CoV2 antibody producing cells” value is reported as “increased” and the number of splenocytes entry is given as “increased”.

Take `CCOC(=O)[C@@]1(CCCCCCOc2ccc(Cl)cc2)CO1` [Etomoxir]: in [6], the “number of CD138+ cells” value is given as “substantially increased”.

In the case of `O=CC[C@@H](O)[C@H](O)[C@H](O)CO` [2DG, 2-deoxy-D-glucose], the “number of CD138+ cells” value in experiment [6] is reported as “substantially decreased”.
